This passage reports Ki results from patent US20250270172A1, “Pyrimidine Derivatives As Modulators of the 5-HT2A Serotonin Receptor Useful For The Treatment of Disorders Related Thereto” (Arena Pharmaceuticals, Inc., priority 2020, published 2025).

Structures are written as SMILES.

The target of the first experiment is 5-HT2A (Homo sapiens (Human), UniProt P28223). Put plainly: Radioligand binding assay, [^3H]5-HT competition, 5-HT2A. As to conditions: [^3H]5-HT radioligand, membranes of HEK293 cells expressing recombinant 5-HT2A; Ki from IC50 by Cheng-Prusoff; read-out: 5-HT2A serotonin binding Ki value.
Sequence of 5-HT2A (P28223 whole entry): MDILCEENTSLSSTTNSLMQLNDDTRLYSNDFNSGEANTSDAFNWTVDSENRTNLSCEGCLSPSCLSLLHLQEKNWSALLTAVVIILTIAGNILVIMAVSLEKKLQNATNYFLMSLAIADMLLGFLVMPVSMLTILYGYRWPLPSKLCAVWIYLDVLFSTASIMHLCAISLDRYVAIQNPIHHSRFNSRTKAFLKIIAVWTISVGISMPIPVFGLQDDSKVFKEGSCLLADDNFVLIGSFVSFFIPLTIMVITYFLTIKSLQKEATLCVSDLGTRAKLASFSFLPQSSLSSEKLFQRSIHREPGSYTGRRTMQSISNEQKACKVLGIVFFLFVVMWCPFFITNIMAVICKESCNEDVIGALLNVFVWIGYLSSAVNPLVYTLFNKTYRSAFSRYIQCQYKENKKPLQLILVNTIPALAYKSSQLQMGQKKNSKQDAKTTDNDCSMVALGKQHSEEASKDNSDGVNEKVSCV
Usually Ki stands for a measure of affinity in units of concentration, obtained from inhibition or displacement. As for `Cc1ncnc(C)c1-c1cc(NC(=O)c2ccn(C)c2)ccc1OCCN1CCCC1` [Compound 201, N-(3-(4,6-dimethylpyrimidin-5-yl)-4-(2-(pyrrolidin-1-yl)ethoxy)phenyl)-1-methyl-1H-pyrrole-3-carboxamide], the Ki was determined as 33.4 nM. `Cc1ncnc(C)c1-c1cc(NC(=O)c2ccn(C)n2)ccc1OCCN1CCCC1` [Compound 203, N-(3-(4,6-dimethylpyrimidin-5-yl)-4-(2-(pyrrolidin-1-yl)ethoxy)phenyl)-1-methyl-1H-pyrazole-3-carboxamide]: the Ki stood at 783 nM. Turning to `Cc1cc(C(=O)Nc2ccc(OCCN3CCCC3)c(-c3c(C)ncnc3C)c2)co1` [Compound 204, N-(3-(4,6-dimethylpyrimidin-5-yl)-4-(2-(pyrrolidin-1-yl)ethoxy)phenyl)-5-methylfuran-3-carboxamide], the Ki came out at 13.2 nM. Same read-out and setting: the value for `CCc1cc(C(=O)Nc2ccc(OCCN3CCCC3)c(-c3c(C)ncnc3C)c2)[nH]n1` [Compound 205, N-(3-(4,6-dimethylpyrimidin-5-yl)-4-(2-(pyrrolidin-1-yl)ethoxy)phenyl)-3-ethyl-1H-pyrazole-5-carboxamide] was 10.4 nM; that for `Cc1ncnc(C)c1-c1cc(NC(=O)c2cc(C(C)C)n[nH]2)ccc1OCCN1CCCC1` [Compound 206, N-(3-(4,6-dimethylpyrimidin-5-yl)-4-(2-(pyrrolidin-1-yl)ethoxy)phenyl)-3-isopropyl-1H-pyrazole-5-carboxamide] was 6.51 nM. Take `Cc1ncnc(C)c1-c1cc(NC(=O)c2cncc(F)c2)ccc1OCCN1CCCC1` [Compound 207, N-(3-(4,6-dimethylpyrimidin-5-yl)-4-(2-(pyrrolidin-1-yl)ethoxy)phenyl)-5-fluoronicotinamide]: the Ki was 44.2 nM.

For the compound `COc1cncc(C(=O)Nc2ccc(OCCN3CCCC3)c(-c3c(C)ncnc3C)c2)c1` [Compound 208, N-(3-(4,6-dimethylpyrimidin-5-yl)-4-(2-(pyrrolidin-1-yl)ethoxy)phenyl)-5-methoxynicotinamide], the Ki amounted to 22.5 nM. The same measure, in the same setting: to `Cc1ncnc(C)c1-c1cc(NC(=O)c2ccc(F)cn2)ccc1OCCN1CCCC1` [Compound 210, N-(3-(4,6-dimethylpyrimidin-5-yl)-4-(2-(pyrrolidin-1-yl)ethoxy)phenyl)-5-fluoropicolinamide] belongs 134 nM. On to `Cc1ncnc(C)c1-c1cc(NC(=O)[C@@H]2C[C@H]2F)ccc1OCCN1CCCC1` [Compound 211, (1S,2R)—N-(3-(4,6-dimethylpyrimidin-5-yl)-4-(2-(pyrrolidin-1-yl)ethoxy)phenyl)-2-fluorocyclopropane-1-carboxamide], for which the Ki amounted to 2.08 nM. As to `Cc1ncnc(C)c1-c1cc(NC(=O)[C@H]2C[C@H]2F)ccc1OCCN1CCCC1` [Compound 212, (1R,2R)—N-(3-(4,6-dimethylpyrimidin-5-yl)-4-(2-(pyrrolidin-1-yl)ethoxy)phenyl)-2-fluorocyclopropane-1-carboxamide], the Ki came to 5.56 nM. On to `Cc1ncnc(C)c1-c1cc(NC(=O)[C@@H]2C[C@@H]2F)ccc1OCCN1CCCC1` [Compound 213, (1S,2S)—N-(3-(4,6-dimethylpyrimidin-5-yl)-4-(2-(pyrrolidin-1-yl)ethoxy)phenyl)-2-fluorocyclopropane-1-carboxamide], for which the Ki amounted to 4.6 nM. Still for that read-out and setting: the value for `Cc1nc(C)c(C(=O)Nc2ccc(OCCN3CCCC3)c(-c3c(C)ncnc3C)c2)s1` [Compound 215, N-(3-(4,6-dimethylpyrimidin-5-yl)-4-(2-(pyrrolidin-1-yl)ethoxy)phenyl)-2,4-dimethylthiazole-5-carboxamide] was 15.7 nM; that for `Cc1cnoc1C(=O)Nc1ccc(OCCN2CCCC2)c(-c2c(C)ncnc2C)c1` [Compound 216, N-(3-(4,6-dimethylpyrimidin-5-yl)-4-(2-(pyrrolidin-1-yl)ethoxy)phenyl)-4-methylisoxazole-5-carboxamide] was 16.6 nM. For the compound `Cc1ncnc(C)c1-c1cc(NC(=O)c2cnoc2)ccc1OCCN1CCCC1` [Compound 218, N-(3-(4,6-dimethylpyrimidin-5-yl)-4-(2-(pyrrolidin-1-yl)ethoxy)phenyl)isoxazole-4-carboxamide], the Ki stood at 1510 nM. For `Cc1nocc1C(=O)Nc1ccc(OCCN2CCCC2)c(-c2c(C)ncnc2C)c1` [Compound 219], the Ki stood at 6.51 nM. For the compound `Cc1ncnc(C)c1-c1cc(NC(=O)c2cnoc2C)ccc1OCCN1CCCC1` [Compound 220, N-(3-(4,6-dimethylpyrimidin-5-yl)-4-(2-(pyrrolidin-1-yl)ethoxy)phenyl)-5-methylisoxazole-4-carboxamide], the inhibition constant Ki was found to be 22 nM. As for `Cc1ncnc(C)c1-c1cc(NC(=O)c2ncoc2C)ccc1OCCN1CCCC1` [Compound 221, N-(3-(4,6-dimethylpyrimidin-5-yl)-4-(2-(pyrrolidin-1-yl)ethoxy)phenyl)-5-methyloxazole-4-carboxamide], the Ki was determined as 11.4 nM. Still for that read-out and setting: to `Cc1ncnc(C)c1-c1cc(NC(=O)Cc2ncsc2C)ccc1OCCN1CCCC1` [Compound 225, N-(3-(4,6-dimethylpyrimidin-5-yl)-4-(2-(pyrrolidin-1-yl)ethoxy)phenyl)-2-(5-methylthiazol-4-yl)acetamide] belongs 712 nM; to `Cc1ncoc1CC(=O)Nc1ccc(OCCN2CCCC2)c(-c2c(C)ncnc2C)c1` [Compound 226, N-(3-(4,6-dimethylpyrimidin-5-yl)-4-(2-(pyrrolidin-1-yl)ethoxy)phenyl)-2-(4-methyloxazol-5-yl)acetamide], 714 nM.

Take `Cc1ncnc(C)c1-c1cc(NC(=O)Cc2ccnn2C)ccc1OCCN1CCCC1` [Compound 227, N-(3-(4,6-dimethylpyrimidin-5-yl)-4-(2-(pyrrolidin-1-yl)ethoxy)phenyl)-2-(1-methyl-1H-pyrazol-5-yl)acetamide]: the Ki stood at 83.1 nM. Consider `Cc1ncnc(C)c1-c1cc(NC(=O)CC2CCOC2)ccc1OCCN1CCCC1` (centres unmarked) [Compound 228, N-(3-(4,6-dimethylpyrimidin-5-yl)-4-(2-(pyrrolidin-1-yl)ethoxy)phenyl)-2-(tetrahydrofuran-3-yl)acetamide], for which the Ki came out at 13 nM. With `Cc1ncnc(C)c1-c1cc(NC(=O)CC2CCCO2)ccc1OCCN1CCCC1` (centres unmarked) [Compound 229, N-(3-(4,6-dimethylpyrimidin-5-yl)-4-(2-(pyrrolidin-1-yl)ethoxy)phenyl)-2-(tetrahydrofuran-2-yl)acetamide], the inhibition constant (Ki) was 113 nM. On the same count and under the same terms, the value for `Cc1ncnc(C)c1-c1cc(NC(=O)C2CCCO2)ccc1OCCN1CCCC1` (centres unmarked) [Compound 230, N-(3-(4,6-dimethylpyrimidin-5-yl)-4-(2-(pyrrolidin-1-yl)ethoxy)phenyl)tetrahydrofuran-2-carboxamide] was 252 nM; that for `Cc1ncnc(C)c1-c1cc(NC(=O)C2CCOC2)ccc1OCCN1CCCC1` (centres unmarked) [Compound 231, N-(3-(4,6-dimethylpyrimidin-5-yl)-4-(2-(pyrrolidin-1-yl)ethoxy)phenyl)tetrahydrofuran-3-carboxamide] was 45.7 nM; that for `CCOCC(=O)Nc1ccc(OCCN2CCCC2)c(-c2c(C)ncnc2C)c1` [Compound 234, N-(3-(4,6-dimethylpyrimidin-5-yl)-4-(2-(pyrrolidin-1-yl)ethoxy)phenyl)-2-ethoxyacetamide] was 121 nM.

Staying with this experiment, now noted: read-out: 5-HT2A serotonin binding Ki value.
Regarding `Cc1nscc1C(=O)Nc1ccc(OCCN2CCCC2)c(-c2c(C)ncnc2C)c1` [Compound 223, N-(3-(4,6-dimethylpyrimidin-5-yl)-4-(2-(pyrrolidin-1-yl)ethoxy)phenyl)-3-methylisothiazole-4-carboxamide], the Ki was determined as 10.5 nM.
